# Experimental data from patent publication US20240343681A1, “MOLECULES HAVING PESTICIDAL UTILITY AND INTERMEDIATES AND PROCESSES RELATED THERETO” (priority 2021, published 2024).
# System: Beet Armyworm (Spodoptera exigua, LAPHEG) second instar larva
# Assay: Bioassay on beet armyworm (BAW), 128-well diet tray assay
# Type: in vivo
# Details: 50 μg/cm^2 on artificial diet, 25° C., five days
# Method: Example A: Bioassays on Beet Armyworm (Spodoptera exigua, LAPHEG) (“BAW”) and Cabbage Looper (Trichoplusia ni, TRIPNI) (“CL”)
# Bioassays on BAW were conducted using a 128-well diet tray assay. One second instar BAW larva was placed in each well (8 wells total) of the diet tray that had been previously filled with 1 mL of artificial diet to which 50 μg/cm^2 of the test molecule (dissolved in 50 μL of 90:10 acetone-water mixture) had been applied (to each of eight wells) and then allowed to dry. Trays were covered with a clear self-adhesive cover, vented to allow gas exchange, and held at 25° C., 14:10 light-dark for five days. Percent mortality was recorded for the larvae in each well; activity in the eight wells was then averaged.
row,Structure (SMILES),"activity against BAW (percent mortality, averaged over eight wells)"
1,"O=C(Nc1cc(NC(=O)[C@H]2[C@H](c3cc(Cl)cc(Cl)c3)C2(Cl)Cl)ccc1Cl)c1cccc([N+](=O)[O-])c1 (racemic) [F88, trans-rac-N-(2-chloro-5-(2,2-dichloro-3-(3,5-dichlorophenyl)cyclopropane-1-carboxamido)phenyl)-3-nitrobenzamide]",exhibited activity
2,"O=C(Nc1cc(NC(=O)[C@H]2[C@H](c3cc(Cl)cc(Cl)c3)C2(Cl)Cl)ccc1Cl)c1ccc([N+](=O)[O-])cc1 (racemic) [F89, trans-rac-N-(2-Chloro-5-(2,2-dichloro-3-(3,5-dichlorophenyl)cyclopropane-1-carboxamido)phenyl)-4-nitrobenzamide]",exhibited activity
3,"Cc1cc([N+](=O)[O-])ccc1C(=O)Nc1cc(NC(=O)[C@H]2[C@H](c3cc(Cl)cc(Cl)c3)C2(Cl)Cl)ccc1Cl (racemic) [F90, trans-rac-N-(2-Chloro-5-(2,2-dichloro-3-(3,5-dichlorophenyl)cyclopropane-1-carboxamido)phenyl)-2-methyl-4-nitrobenzamide]",exhibited activity
4,"C#Cc1ccc(C(=O)Nc2cc(NC(=O)[C@H]3[C@H](c4cc(Cl)cc(Cl)c4)C3(Cl)Cl)ccc2Cl)cc1 (racemic) [F91, trans-rac-N-(2-Chloro-5-(2,2-dichloro-3-(3,5-dichlorophenyl)cyclopropane-1-carboxamido)phenyl)-4-ethynylbenzamide]",exhibited activity
5,"CC(CC(=O)N(C)c1cc(NC(=O)C2C(c3cc(Cl)cc(Cl)c3)C2(Cl)Cl)ccc1Cl)C(F)(F)F (racemic) [F92, trans-rac-2,2-dichloro-N-(4-chloro-3-(4,4,4-trifluoro-N,3-dimethylbutanamido)phenyl)-3-(3,5-dichlorophenyl)cyclopropane-1-carboxamide]",exhibited activity
6,"Cc1cc(C#N)ccc1C(=O)N(C)c1cc(NC(=O)[C@H]2[C@H](c3cc(Cl)cc(Cl)c3)C2(Cl)Cl)ccc1Cl (racemic) [F93, trans-rac-N-(2-Chloro-5-(2,2-dichloro-3-(3,5-dichlorophenyl)cyclopropane-1-carboxamido)phenyl)-4-cyano-N,2-dimethylbenzamide]",exhibited activity
7,"CN(C(=O)c1cc(F)cc(F)c1)c1cc(NC(=O)[C@H]2[C@H](c3cc(Cl)cc(Cl)c3)C2(Cl)Cl)ccc1Cl (racemic) [F94, trans-rac-N-(2-Chloro-5-(2,2-dichloro-3-(3,5-dichlorophenyl)cyclopropane-1-carboxamido)phenyl)-3,5-difluoro-N-methylbenzamide]",exhibited activity
8,"O=C(COCC(F)(F)F)Nc1ccc(C(=O)Nc2cc(NC(=O)[C@H]3[C@H](c4ccc(F)c(C(F)(F)F)c4)C3(Cl)Cl)ccc2Cl)c(F)c1 (racemic) [F119, trans-rac-N-(2-Chloro-5-(2,2-dichloro-3-(4-fluoro-3-(trifluoromethyl)phenyl)cyclopropane-1-carboxamido)phenyl)-2-fluoro-4-(2-(2,2,2-trifluoroethoxy)acetamido)benzamide]",exhibited activity
9,"O=C(CCC(F)(F)F)Nc1ccc(C(=O)Nc2cc(NC(=O)[C@H]3[C@H](c4ccc(F)c(C(F)(F)F)c4)C3(Cl)Cl)ccc2Cl)c(F)c1 (racemic) [F120, trans-rac-N-(2-Chloro-5-(2,2-dichloro-3-(4-fluoro-3-(trifluoromethyl)phenyl)cyclopropane-1-carboxamido)phenyl)-2-fluoro-4-(4,4,4-trifluorobutanamido)benzamide]",exhibited activity
10,"O=C(CSC(F)(F)F)Nc1ccc(C(=O)Nc2cc(NC(=O)[C@H]3[C@H](c4ccc(F)c(C(F)(F)F)c4)C3(Cl)Cl)ccc2Cl)c(F)c1 (racemic) [F121, trans-rac-N-(2-Chloro-5-(2,2-dichloro-3-(4-fluoro-3-(trifluoromethyl)phenyl)cyclopropane-1-carboxamido)phenyl)-2-fluoro-4-(2-((trifluoromethyl)thio)acetamido)benzamide]",exhibited activity
11,"CCOC(C)C(=O)Nc1c(F)ccc(NC(=O)[C@H]2[C@H](c3cc(Cl)c(Cl)c(Cl)c3)C2(Cl)Cl)c1F (stereo partly drawn) [F12, (1R,3R)-2,2-Dichloro-N-(3-(2-ethoxypropanamido)-2,4-difluorophenyl)-3-(3,4,5-trichlorophenyl)cyclopropane-1-carboxamide]",exhibited activity
12,"O=C(Nc1ccc(F)c(NC(=O)C(F)(F)C(F)(F)C(F)(F)F)c1F)[C@H]1[C@H](c2cc(Cl)c(Cl)c(Cl)c2)C1(Cl)Cl [F13, (1R,3R)-2,2-Dichloro-N-(2,4-difluoro-3-(2,2,3,3,4,4,4-heptafluorobutanamido)phenyl)-3-(3,4,5-trichlorophenyl)cyclopropane-1-carboxamide]",exhibited activity
13,"Cc1cc(C#N)ccc1C(=O)Nc1cc(NC(=O)[C@H]2[C@H](c3ccc(F)c(C(F)(F)F)c3)C2(Cl)Cl)ccc1Cl [F97, N-(2-Chloro-5-((1R,3R)-2,2-dichloro-3-(4-fluoro-3-(trifluoromethyl)phenyl)cyclopropane-1-carboxamido)phenyl)-4-cyano-2-methylbenzamide]",exhibited activity
14,"Cc1cc(C#N)ccc1C(=O)Nc1cc(NC(=O)[C@H]2[C@H](c3ccc(F)c(Br)c3)C2(Cl)Cl)ccc1Cl [F98, N-(5-((1R,3R)-3-(3-Bromo-4-fluorophenyl)-2,2-dichlorocyclopropane-1-carboxamido)-2-chlorophenyl)-4-cyano-2-methylbenzamide]",exhibited activity
15,"Cc1cc(C#N)ccc1C(=O)Nc1cc(NC(=O)[C@H]2[C@H](c3ccc(Cl)c(Cl)c3)C2(Cl)Cl)ccc1Cl [F99, N-(2-Chloro-5-((1R,3R)-2,2-dichloro-3-(3,4-dichlorophenyl)cyclopropane-1-carboxamido)phenyl)-4-cyano-2-methylbenzamide]",exhibited activity
16,"CC(CC(=O)Nc1cc(NC(=O)[C@H]2[C@H](c3ccc(F)c(C(F)(F)F)c3)C2(Cl)Cl)ccc1Cl)C(F)(F)F (stereo partly drawn) [F102, (1R,3R)-2,2-Dichloro-N-(4-chloro-3-(4,4,4-trifluoro-3-methylbutanamido)phenyl)-3-(4-fluoro-3-(trifluoromethyl)phenyl)cyclopropane-1-carboxamide]",exhibited activity
17,"Nc1c(F)ccc(C(=O)Nc2cc(NC(=O)[C@H]3[C@H](c4ccc(F)c(C(F)(F)F)c4)C3(Cl)Cl)ccc2Cl)c1F [F103, 3-amino-N-(2-chloro-5-((1R,3R)-2,2-dichloro-3-(4-fluoro-3-(trifluoromethyl)phenyl)cyclopropane-1-carboxamido)phenyl)-2,4-difluorobenzamide]",exhibited activity
18,"O=C(Nc1cc(NC(=O)[C@H]2[C@H](c3ccc(F)c(C(F)(F)F)c3)C2(Cl)Cl)ccc1Cl)c1ccc(F)c(NC(=O)C(F)F)c1F [F104, N-(2-chloro-5-((1R,3R)-2,2-dichloro-3-(4-fluoro-3-(trifluoromethyl)phenyl)cyclopropane-1-carboxamido)phenyl)-3-(2,2-difluoroacetamido)-2,4-difluorobenzamide]",exhibited activity
19,"COCC(=O)Nc1c(F)ccc(C(=O)Nc2cc(NC(=O)[C@H]3[C@H](c4ccc(F)c(C(F)(F)F)c4)C3(Cl)Cl)ccc2Cl)c1F [F105, N-(2-chloro-5-((1R,3R)-2,2-dichloro-3-(4-fluoro-3-(trifluoromethyl)phenyl)cyclopropane-1-carboxamido)phenyl)-2,4-difluoro-3-(2-methoxyacetamido)benzamide]",exhibited activity
20,"O=C(Nc1cc(NC(=O)[C@@H]2[C@@H](c3ccc(F)c(C(F)(F)F)c3)C2(Cl)Cl)ccc1Cl)c1cnc(F)c(F)c1 [F110, N-(2-Chloro-5-((1S,3S)-2,2-dichloro-3-(4-fluoro-3-(trifluoromethyl)phenyl)cyclopropane-1-carboxamido)phenyl)-5,6-difluoronicotinamide]",exhibited activity

# System: Yellow Fever Mosquito (Aedes aegypti, AEDSAE) larvae
# Assay: Bioassay on yellow fever mosquito (YFM), 96-well plate larval assay
# Type: in vivo
# Details: 4000 ppm (master plate solution), about 1 day-old larvae, 3 days
# Method: Example B: Bioassays on Yellow Fever Mosquito (Aedes aegypti, AEDSAE) (“YFM”)
# Master plates containing 400 μg of a molecule dissolved in 100 μL of dimethyl sulfoxide (DMSO) (equivalent to a 4000 ppm solution) are used. A master plate of assembled molecules contains 15 μL per well. To this plate, 135 μL of a 90:10 water/acetone mixture is added to each well. A robot (Biomek® NXP Laboratory Automation Workstation) is programmed to dispense 15 μL aspirations from the master plate into an empty 96-well shallow plate (“daughter” plate). There are 6 reps (“daughter” plates) created per master. The created “daughter” plates are then immediately infested with YFM larvae.
# The day before plates are to be treated, mosquito eggs are placed in Millipore water containing liver powder to begin hatching (4 g into 400 mL). After the “daughter” plates are created using the robot, they are infested with 220 μL of the liver powder/larval mosquito mixture (about 1 day-old larvae). After plates are infested with mosquito larvae, a non-evaporative lid is used to cover the plate to reduce drying. Plates are held at room temperature for 3 days prior to grading. After 3 days, each well is observed and scored based on mortality.
row,Structure (SMILES),activity against YFM (scored based on mortality)
1,"O=C(Nc1cc(NC(=O)[C@H]2[C@H](c3cc(Cl)cc(Cl)c3)C2(Cl)Cl)ccc1Cl)c1ccccn1 (racemic) [F28, trans-rac-N-(2-chloro-5-(2,2-dichloro-3-(3,5-dichlorophenyl)cyclopropane-1-carboxamido)phenyl)picolinamide]",exhibited activity
